Reference: paper PMC10587872, “Virtual Screening-Accelerated Discovery of a Phosphodiesterase 9 Inhibitor with Neuroprotective Effects in the Kainate Toxicity In Vitro Model” (ACS Chemical Neuroscience, 2023)

Target: T1, PDE9 (PDE9A) (Homo sapiens, UniProt O76083)
T1 construct: full-length recombinant human PDE9
Assay: PDE-Glo phosphodiesterase luminescence assay with cGMP substrate, recombinant human PDE9A
Assay type: biochemical

T1 sequence (O76083 whole entry): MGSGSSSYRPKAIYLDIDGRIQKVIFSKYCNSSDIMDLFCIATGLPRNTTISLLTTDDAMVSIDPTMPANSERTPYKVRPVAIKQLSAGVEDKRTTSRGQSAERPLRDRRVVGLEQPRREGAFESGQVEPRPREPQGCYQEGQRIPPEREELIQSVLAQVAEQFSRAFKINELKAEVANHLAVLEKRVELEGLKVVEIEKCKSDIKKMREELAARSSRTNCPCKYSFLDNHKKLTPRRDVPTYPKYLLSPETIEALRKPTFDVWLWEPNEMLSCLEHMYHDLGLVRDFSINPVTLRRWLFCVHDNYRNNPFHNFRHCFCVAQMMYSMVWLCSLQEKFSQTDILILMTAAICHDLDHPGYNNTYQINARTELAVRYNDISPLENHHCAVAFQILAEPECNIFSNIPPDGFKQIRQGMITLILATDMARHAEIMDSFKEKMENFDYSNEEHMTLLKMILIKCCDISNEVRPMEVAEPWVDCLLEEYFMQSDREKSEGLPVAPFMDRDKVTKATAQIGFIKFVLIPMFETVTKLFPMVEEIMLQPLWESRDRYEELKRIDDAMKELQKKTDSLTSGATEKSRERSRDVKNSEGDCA

Compound CC(C)=CCc1c2c(c3occ(-c4ccc(OS(C)(=O)=O)c(OS(C)(=O)=O)c4)c(=O)c3c1O)C=CC(C)(C)O2 [DB987] has an IC50 of 5.35 nM.
